The target in the experiment is NLRP3 (Homo sapiens, UniProt Q96P20). Description: Human whole blood IL1β release assay (LPS + nigericin, AlphaLisa IL-1β). The format is cell-based. Set-up: Plate out 80 μl of whole blood containing 1βg/ml of LPS in 96-well, clear bottom cell culture plate; from tissue; host or cells: human whole blood from healthy donors, LPS-primed and nigericin-stimulated. The following applies: NLRP3 inhibitory activity in human whole blood, IL-1β release, 10 μM nigericin, read-out: HWB IC50. On the procedure: For systemic delivery, the ability to inhibit NLRP3 when the compounds are present within the bloodstream is of great importance. For this reason, the NLRP3 inhibitory activity of a number of compounds in human whole blood was investigated in accordance with the following protocol.
Chain of NLRP3 (Q96P20 whole entry): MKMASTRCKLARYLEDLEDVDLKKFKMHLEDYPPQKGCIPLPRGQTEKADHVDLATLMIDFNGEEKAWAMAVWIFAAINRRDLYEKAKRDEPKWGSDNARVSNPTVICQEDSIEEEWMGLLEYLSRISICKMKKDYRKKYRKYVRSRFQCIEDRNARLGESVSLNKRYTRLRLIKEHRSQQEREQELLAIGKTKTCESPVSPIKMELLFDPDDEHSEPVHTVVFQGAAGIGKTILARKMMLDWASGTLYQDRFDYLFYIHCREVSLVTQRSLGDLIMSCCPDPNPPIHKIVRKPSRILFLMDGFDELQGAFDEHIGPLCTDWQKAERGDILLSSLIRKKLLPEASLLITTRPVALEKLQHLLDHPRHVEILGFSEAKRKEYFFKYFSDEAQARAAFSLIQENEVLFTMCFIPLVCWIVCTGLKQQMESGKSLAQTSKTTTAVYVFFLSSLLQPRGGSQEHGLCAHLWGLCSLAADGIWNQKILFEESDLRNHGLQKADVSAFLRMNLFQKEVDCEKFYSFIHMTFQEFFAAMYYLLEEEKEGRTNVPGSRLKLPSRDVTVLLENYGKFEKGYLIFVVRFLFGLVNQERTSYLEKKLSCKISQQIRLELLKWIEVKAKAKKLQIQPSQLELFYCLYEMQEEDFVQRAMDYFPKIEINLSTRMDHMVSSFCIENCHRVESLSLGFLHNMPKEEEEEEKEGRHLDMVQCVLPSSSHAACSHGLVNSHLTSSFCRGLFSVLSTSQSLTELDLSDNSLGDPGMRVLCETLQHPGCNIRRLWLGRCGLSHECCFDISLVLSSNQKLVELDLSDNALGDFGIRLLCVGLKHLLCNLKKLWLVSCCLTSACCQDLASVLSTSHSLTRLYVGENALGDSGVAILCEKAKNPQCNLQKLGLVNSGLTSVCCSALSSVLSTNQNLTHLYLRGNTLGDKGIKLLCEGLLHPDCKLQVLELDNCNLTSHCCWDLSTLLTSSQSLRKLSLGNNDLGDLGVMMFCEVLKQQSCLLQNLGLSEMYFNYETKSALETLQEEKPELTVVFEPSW
Human whole blood in Li-heparin tubes was obtained from healthy donors from a volunteer donor panel. • 1. Plate out 80 μl of whole blood containing 1βg/ml of LPS in 96-well, clear bottom cell culture plate (Corning #3585) • 2. Add 10 μl compound (8 points half-log dilution with 10 μM top dose) or vehicle (DMSO 0.1% FAC) to the appropriate wells • 3. Incubate for 3 hrs at 37° C., 5% CO2 • 4. Add 10 μl Nigericin (Sigma # N7143) (10 μM FAC) to all wells • 5. Incubate for 1 hr at 37° C., 5% CO2 • 6. At the end of the incubation period, spin plates at 300×g for 5 mins to pellet cells and remove 20 μl of supernatant and add to 96-well v-bottom plates for IL-1β analysis (note: these plates containing the supernatants can be stored at −80° C. to be analysed at a later date) • 7. IL-1β was measured according to the manufacturer protocol (Perkin Elmer-AlphaLisa IL-1 Kit AL220F-5000) • 8. IC50 data is fitted to a non-linear regression equation (log inhibitor vs response-variable slope 4-parameters)

As to `CC(C)C(=O)N(C)CCCS(=O)(=O)NC(=O)Nc1c2c(cc3c1CCC3)CCC2` [Example 95, N-(3-(N-((1,2,3,5,6,7-Hexahydro-s-indacen-4-yl)carbamoyl)sulfamoyl)propyl)-N-methylisobutyramide], the 50% inhibitory concentration (IC50) was no more than 5 µM.

As for `CN(C)C(=O)CCS(=O)(=O)NC(=O)Nc1c2c(cc3c1CCC3)CCC2` [Example 97, 3-(N-((1,2,3,5,6,7-Hexahydro-s-indacen-4-yl)carbamoyl)sulfamoyl)-N,N-dimethylpropanamide], the 50% inhibitory concentration (IC50) was no more than 7.5 µM. For `CC1(C)CCN1CCS(=O)(=O)NC(=O)Nc1c2c(cc3c1CCC3)CCC2` [Example 102, 2-(2,2-Dimethylazetidin-1-yl)-N-((1,2,3,5,6,7-hexahydro-s-indacen-4-yl)carbamoyl)ethane-1-sulfonamide], the IC50 is no more than 1 µM. Then `CC1CC(C)N1CCS(=O)(=O)NC(=O)Nc1c2c(cc3c1CCC3)CCC2` (centres unmarked) [Example 103, 2-(2,4-Dimethylazetidin-1-yl)-N-((1,2,3,5,6,7-hexahydro-s-indacen-4-yl)carbamoyl)ethane-1-sulfonamide], with no more than 1 µM; and `CC(C)C1CCN1CCS(=O)(=O)NC(=O)Nc1c2c(cc3c1CCC3)CCC2` (centres unmarked) [Example 104, N-((1,2,3,5,6,7-Hexahydro-s-indacen-4-yl)carbamoyl)-2-(2-isopropylazetidin-1-yl)ethane-1-sulfonamide], with no more than 1 µM; and `CN1CCCC1CS(=O)(=O)NC(=O)Nc1c2c(cc3c1CCC3)CCC2` (centres unmarked) [Example 105, N-((1,2,3,5,6,7-Hexahydro-s-indacen-4-yl)carbamoyl)-1-(1-methylpyrrolidin-2-yl)methanesulfonamide], with no more than 1 µM. Then `CCN1CCCC1CS(=O)(=O)NC(=O)Nc1c2c(cc3c1CCC3)CCC2` (centres unmarked) [Example 106, 1-(1-Ethylpyrrolidin-2-yl)-N-((1,2,3,5,6,7-hexahydro-s-indacen-4-yl)carbamoyl)methanesulfonamide], with no more than 1 µM; and `CC(C)N1CCCC1CS(=O)(=O)NC(=O)Nc1c2c(cc3c1CCC3)CCC2` (centres unmarked) [Example 107, N-((1,2,3,5,6,7-Hexahydro-s-indacen-4-yl)carbamoyl)-1-(1-isopropylpyrrolidin-2-yl)methanesulfonamide], with no more than 1 µM; and `CC(C)N1CCCCC1CS(=O)(=O)NC(=O)Nc1c2c(cc3c1CCC3)CCC2` (centres unmarked) [Example 109, N-((1,2,3,5,6,7-Hexahydro-s-indacen-4-yl)carbamoyl)-1-(1-isopropylpiperidin-2-yl)methanesulfonamide], with no more than 1 µM. Then `CCN1CCCCC1CS(=O)(=O)NC(=O)Nc1c2c(cc3c1CCC3)CCC2` (centres unmarked) [Example 110, 1-(1-Ethylpiperidin-2-yl)-N-((1,2,3,5,6,7-hexahydro-s-indacen-4-yl)carbamoyl)methanesulfonamide], with no more than 1 µM; and `CC(C)n1ccc(CS(=O)(=O)NC(=O)Nc2c3c(cc4c2CCC4)CCC3)n1` [Example 111, N-((1,2,3,5,6,7-Hexahydro-s-indacen-4-yl)carbamoyl)-1-(1-isopropyl-1H-pyrazol-3-yl)methanesulfonamide], with no more than 7.5 µM.

(Values after patent publication US20200331850A1, “NOVEL SULFONAMIDE CARBOXAMIDE COMPOUNDS” (Inflazome Limited, priority 2017, published 2020).)
